{"source": "patent US11884675B2", "about": "“Heterocyclic compounds as triggering receptor expressed on myeloid cells 2 agonists and methods of use” (AMGEN INC., priority 2020, dated 2024)"}
{"biological_target": "hTREM2 (Homo sapiens, UniProt Q9NZC2)", "sequence (Q9NZC2 19-230)": "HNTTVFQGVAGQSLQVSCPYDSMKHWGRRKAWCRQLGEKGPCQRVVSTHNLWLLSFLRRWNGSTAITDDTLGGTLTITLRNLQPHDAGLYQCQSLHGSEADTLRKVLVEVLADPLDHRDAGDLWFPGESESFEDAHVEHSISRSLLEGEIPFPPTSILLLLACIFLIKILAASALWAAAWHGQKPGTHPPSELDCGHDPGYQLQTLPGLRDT", "sequence (O43914 22-113 partner)": "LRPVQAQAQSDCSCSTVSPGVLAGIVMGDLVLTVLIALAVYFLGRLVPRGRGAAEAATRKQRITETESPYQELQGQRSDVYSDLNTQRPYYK", "experiment": "TREM2 activity by cellular Syk phosphorylation (AlphaScreen/AlphaLISA) in TREM2/DAP12-HEK cells, used for Examples 1-305", "type": "cell-based", "design": "expressed in transfected cells", "conditions": "HEK293 Cells", "outline": "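Single-cell-cloned HEK293 cells overexpressing TREM2 and DAP12, seeded 20 h, exposed to test articles (1% final DMSO) for 45 min at room temperature. Lysates read for phospho-Syk (Tyr525/526) vs total Syk by AlphaScreen. Signal normalised as percent of control between isotype IgG and 100 nM anti-TREM2 antibody; 4-parameter logistic fit.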", "units": {"EC50": "nM"}}
{"smiles": "Cc1cc([C@@H]2C[C@@H](c3nc(-c4ccc(F)cc4F)c4cc(C)c(C)nc4n3)CCO2)ccn1", "note": "(single isomer, unassigned) [Example 227]", "EC50": "≤ 50", "hTREM2 Emax": "+++ (Emax>150 and ≤250)"}
{"smiles": "Cc1cnc2c(-c3ccc(Cl)cc3F)nc(N3CCO[C@@H](c4cnn(C5COC5)c4)C3)cc2n1", "note": "[Example 129, 5-(4-chloro-2-fluorophenyl)-2-methyl-7((2S)-2-(1-(3-oxetanyl)-1H-pyrazol-4-yl)-4-morpholinyl) pyrido[3,4-b]pyrazine]", "EC50": "50 to 500", "hTREM2 Emax": "++++ (Emax>250)"}
{"smiles": "COc1cc([C@H]2CN(c3cc4nc(C)ccc4c(-c4ccc(Cl)cc4F)n3)CCO2)ccn1", "note": "[Example 149, 5-(4-chloro-2-fluorophenyl)-7-((2S)-2-(2-methoxy-4-pyridinyl)-4-morpholinyl)-2-methyl-1,6-naphthyridine]", "EC50": "50 to 500", "hTREM2 Emax": "++++ (Emax>250)"}
{"smiles": "Cc1cc2c(-c3ccc(Cl)cc3F)nc(C3CCO[C@H](c4cnn(C)c4)C3)nc2nc1C", "note": "(stereo in doubt) [Example 277, 4-(4-chloro-2-fluorophenyl)-6,7-dimethyl-2-((2S,4R)-2-(1-methyl-1H-pyrazol-4-yl)tetrahydro-2H-pyran-4-yl)pyrido[2,3-d]pyrimidine]", "EC50": "50 to 500", "hTREM2 Emax": "+++ (Emax>150 and ≤250)"}
{"smiles": "Cc1cc([C@@H]2C[C@H](c3nc4nc(C)c(C)nc4c([C@H]4C[C@H](C(F)(F)F)C4)n3)CCO2)ccn1", "note": "(single isomer, unassigned) [Example 214]", "EC50": "50 to 500", "hTREM2 Emax": "++++ (Emax>250)"}
{"smiles": "Cc1cc([C@H]2C[C@H](c3nc(-c4ccc(F)cc4F)c4nc(C)c(C)nc4n3)CCO2)ccn1", "note": "(single isomer, unassigned) [Example 213]", "EC50": "50 to 500", "hTREM2 Emax": "+++ (Emax>150 and ≤250)"}
{"smiles": "Cc1nc2nc(N3CCO[C@@H](c4cnn(C)c4)C3)nc(C3CCC(C)(C)CC3)c2nc1C", "note": "[Example 130, 4-(4,4-dimethylcyclohexyl)-6,7-dimethyl-2-((2S)-2-(1-methyl-1H-pyrazol-4-yl)-4-morpholinyl) pteridine]", "EC50": "≤ 50", "hTREM2 Emax": "+ (Emax>45 and ≤100)"}
{"smiles": "Cc1nc2nc(N3CCO[C@@H](c4cnn(C)c4)C3)nc(-c3ccc(F)c(F)c3)c2nc1C", "note": "[Example 60, 4-(3,4-difluorophenyl)-6,7-dimethyl-2-((2S)-2-(1-methyl-1H-pyrazol-4-yl)-4-morpholinyl)pteridine]", "EC50": "≤ 50", "hTREM2 Emax": "+++ (Emax>150 and ≤250)"}
{"smiles": "Cc1nc2nc(N3CCO[C@@H](c4cnn(C)c4)C3)nc(C3=CCC(C(F)(F)F)CC3)c2nc1C", "note": "(stereo partly drawn) [Example 254, (2S)-4-(6,7-dimethyl-4-(4-(trifluoromethyl)cyclohex-1-en-1-yl)pteridin-2-yl)-2-(1-methyl-1H-pyrazol-4-yl)morpholine]", "EC50": "50 to 500", "hTREM2 Emax": "+++ (Emax>150 and ≤250)"}
{"smiles": "Cc1cc([C@H]2CN(c3nc4nc(C)c(C)nc4c([C@H]4C[C@H](C(F)(F)F)C4)n3)CCO2)ccn1", "note": "[Example 55]", "EC50": "≤ 50", "hTREM2 Emax": "+++ (Emax>150 and ≤250)"}
{"smiles": "Cc1cc([C@@H]2CN(c3nc4nc(C)cnc4c([C@H]4C[C@H](C(F)(F)F)C4)n3)CCO2)cnn1", "note": "[Example 281, (R)-4-(7-methyl-4-((1r,3S)-3-(trifluoromethyl)cyclobutyl)pteridin-2-yl)-2-(6-methylpyridazin-4-yl)morpholine]", "EC50": "500 to 3000", "hTREM2 Emax": "+++ (Emax>150 and ≤250)"}
{"smiles": "Cc1cc([C@H]2CN(c3nc(-c4ccc(Cl)cc4F)c4ncc(C)nc4n3)CCO2)ccn1", "note": "[Example 3, 4-(4-chloro-2-fluorophenyl)-7-methyl-2-((2S)-2-(2-methyl-4-pyridinyl)-4-morpholinyl)pteridine]", "EC50": "≤ 50", "hTREM2 Emax": "+++ (Emax>150 and ≤250)"}
{"smiles": "Cc1ccc(-c2nc([C@H]3CCO[C@H](c4ccnc(C)c4)C3)nc3nc(C)c(C)nc23)c(F)c1", "note": "[Example 286, 4-(2-fluoro-4-methylphenyl)-6,7-dimethyl-2-((2S,4S)-2-(2-methylpyridin-4-yl)tetrahydro-2H-pyran-4-yl)pteridine]", "EC50": "≤ 50", "hTREM2 Emax": "+++ (Emax>150 and ≤250)"}
{"smiles": "Cc1ccc2c(-c3ccc(Cl)cc3F)nc([C@@H]3CCO[C@H](c4cnn(C5CC5)c4)C3)nc2n1", "note": "[Example 260, 4-(4-chloro-2-fluorophenyl)-2-((2S,4R)-2-(1-cyclopropyl-1H-pyrazol-4-yl)tetrahydro-2H-pyran-4-yl)-7-methylpyrido [2,3-d]pyrimidine]", "EC50": "500 to 3000", "hTREM2 Emax": "+++ (Emax>150 and ≤250)"}
{"smiles": "Cc1cnc2nc(N3CCO[C@@H](c4cnn(C)c4)C3)cc(-c3ccc(Cl)cc3F)c2n1", "note": "[Example 158, 8-(4-chloro-2-fluorophenyl)-2-methyl-6-((2S)-2-(1-methyl-1H-pyrazol-4-yl)-4-morpholinyl)pyrido [2,3-b]pyrazine]", "EC50": "50 to 500", "hTREM2 Emax": "+++ (Emax>150 and ≤250)"}
{"smiles": "Cc1cc([C@H]2CN(c3nc(-c4ccc(F)cc4F)c4ncc(C)nc4n3)CCO2)ccn1", "note": "[Example 8, 4-(2,4-difluorophenyl)-7-methyl-2-((2S)-2-(2-methyl-4-pyridinyl)-4-morpholinyl)pteridine]", "EC50": "≤ 50", "hTREM2 Emax": "++ (Emax>100 and ≤150)"}
{"smiles": "Cc1cc([C@H]2C[C@@H](c3nc(-c4ccc(Cl)cc4F)c4nc(C)c(C)nc4n3)CCO2)ccn1", "note": "(single isomer, unassigned) [Example 207]", "EC50": "≤ 50", "hTREM2 Emax": "+++ (Emax>150 and ≤250)"}
{"smiles": "Cc1nc2nc([C@@H]3CCO[C@H](c4cnn(C)c4)C3)nc(-c3ccc(Cl)cc3F)c2nc1C", "note": "[Example 242, 4-(4-chloro-2-fluorophenyl)-6,7-dimethyl-2-((2S,4R)-2-(1-methyl-1H-pyrazol-4-yl)tetrahydro-2H-pyran-4-yl)pteridine]", "EC50": "≤ 50", "hTREM2 Emax": "+++ (Emax>150 and ≤250)"}
{"smiles": "CN1Cc2c(cc(N3CCO[C@@H](c4cnn(C)c4)C3)nc2[C@H]2C[C@@H](C(F)(F)F)C2)C1=O", "note": "[Example 117, 2-methyl-6-((2S)-2-(1-methyl-1H-pyrazol-4-yl)-4-morpholinyl)-4-(cis-3-(trifluoromethyl)cyclobutyl)-2,3-dihydro-1H-pyrrolo[3,4-c]pyridin-1-one]", "EC50": "3000 to 100000"}
{"smiles": "Cc1ccc2c(-c3ccc(Cl)cc3F)nc(N3CCO[C@@H](c4cnn(C)c4)C3)nc2n1", "note": "[Example 84, 4-(4-chloro-2-fluorophenyl)-7-methyl-2-((2S)-2-(1-methyl-1H-pyrazol-4-yl)-4-morpholinyl)pyrido[2,3-d]pyrimidine]", "EC50": "≤ 50", "hTREM2 Emax": "+++ (Emax>150 and ≤250)"}
{"smiles": "Cc1nc2nc(N3CCO[C@@H](c4cnn(C)c4)C3)nc(N3CC(F)C3)c2nc1C", "note": "[Example 29, 4-(3-fluoro-1-azetidinyl)-6,7-dimethyl-2-((2S)-2-(1-methyl-1H-pyrazol-4-yl)-4-morpholinyl)pteridine]", "EC50": "3000 to 100000"}
{"smiles": "Cc1ccc2c(-c3ccc(Cl)cc3F)nc(N3CCO[C@@H](c4cnn(C)c4)C3)cc2n1", "note": "[Example 148, 5-(4-chloro-2-fluorophenyl)-2-methyl-7-((2S)-2-(1-methyl-1H-pyrazol-4-yl)-4-morpholinyl)-1,6-naphthyridine]", "EC50": "50 to 500", "hTREM2 Emax": "+++ (Emax>150 and ≤250)"}
{"smiles": "Cc1nc2nc(N3CCO[C@@H](c4cnn(C)c4)C3)nc(-c3ccc(Cl)cc3F)c2cc1Cl", "note": "[Example 116, 6-chloro-4-(4-chloro-2-fluorophenyl)-7-methyl-2-((2S)-2-(1-methyl-1H-pyrazol-4-yl)-4-morpholinyl)pyrido[2,3-d]pyrimidine]", "EC50": "≤ 50", "hTREM2 Emax": "+++ (Emax>150 and ≤250)"}
{"smiles": "Cc1cc(Cl)ccc1-c1nc(N2CCO[C@@H](c3cnn(C)c3)C2)nc2nc(C)c(C)nc12", "note": "[Example 58, 4-(4-chloro-2-methylphenyl)-6,7-dimethyl-2-((2S)-2-(1-methyl-1H-pyrazol-4-yl)-4-morpholinyl)pteridine]", "EC50": "50 to 500", "hTREM2 Emax": "+++ (Emax>150 and ≤250)"}
{"smiles": "Cc1cc2c(OC[C@@H]3C[C@H]3C(F)(F)F)nc(N3CCO[C@@H](c4cnn(C)c4)C3)nc2nc1C", "note": "[Example 110, 6,7-dimethyl-2-((2S)-2-(1-methyl-1H-pyrazol-4-yl)-4-morpholinyl)-4-(((1R,2R)-2-(trifluoromethyl)cyclopropyl)methoxy)pyrido[2,3-d]pyrimidine]", "EC50": "500 to 3000", "hTREM2 Emax": "+ (Emax>45 and ≤100)"}
{"smiles": "Cc1cc([C@H]2CN(c3nc(C45CC(C(F)(F)F)(C4)C5)c4ncc(C)nc4n3)CCO2)ccn1", "note": "[Example 232, (S)-4-(7-methyl-4-(3-(trifluoromethyl)bicyclo[1.1.1]pentan-1-yl)pteridin-2-yl)-2-(2-methylpyridin-4-yl) morpholine]", "EC50": "≤ 50", "hTREM2 Emax": "++ (Emax>100 and ≤150)"}
{"smiles": "Cc1cc([C@H]2CN(c3cc4nc(C)cnc4c(-c4ccc(Cl)cc4F)n3)CCO2)ccn1", "note": "[Example 77, 5-(4-chloro-2-fluorophenyl)-2-methyl-7-((2S)-2-(2-methyl-4-pyridinyl)-4-morpholinyl)pyrido[3,4-b]pyrazine]", "EC50": "≤ 50", "hTREM2 Emax": "+++ (Emax>150 and ≤250)"}
{"smiles": "Cc1cc([C@H]2CN(c3nc(C45CC(C(F)(F)F)(C4)C5)c4nc(C)c(C)nc4n3)CCO2)ccn1", "note": "[Example 65]", "EC50": "≤ 50", "hTREM2 Emax": "+++ (Emax>150 and ≤250)"}
{"smiles": "Cc1nc2nc(N3CCO[C@@H](c4cnn(C)c4)C3)nc(N3CC(C(F)F)C3)c2nc1C", "note": "[Example 269, (S)-4-(4-(3-(difluoromethyl)azetidin-1-yl)-6,7-dimethylpteridin-2-yl)-2-(1-methyl-1H-pyrazol-4-yl)morpholine]", "EC50": "3000 to 100000", "hTREM2 Emax": "+ (Emax>45 and ≤100)"}
{"smiles": "Cc1cnc2c(n1)nc(N1CCO[C@@H](c3cnn(C)c3)C1)nc2[C@H]1C[C@@H](C(F)(F)F)C1", "note": "[Example 274, (S)-2-(1-methyl-1H-pyrazol-4-yl)-4-(7-methyl-4-((1s,3R)-3-(trifluoromethyl)cyclobutyl)pteridin-2-yl)morpholine]", "EC50": "3000 to 100000", "hTREM2 Emax": "++ (Emax>100 and ≤150)"}
